Measured values reported in BindingDB's records for doi:10.1124/mol.59.3.434 (Smithkline Beecham Pharmaceuticals, 2001).
Where “and” joins values, the source holds several entries; their conditions need not be identical. Equal values may be shown once.

Molecular target: Histamine H4 receptor (Homo sapiens, UniProt Q9H3N8)
Sequence (Q9H3N8 whole entry): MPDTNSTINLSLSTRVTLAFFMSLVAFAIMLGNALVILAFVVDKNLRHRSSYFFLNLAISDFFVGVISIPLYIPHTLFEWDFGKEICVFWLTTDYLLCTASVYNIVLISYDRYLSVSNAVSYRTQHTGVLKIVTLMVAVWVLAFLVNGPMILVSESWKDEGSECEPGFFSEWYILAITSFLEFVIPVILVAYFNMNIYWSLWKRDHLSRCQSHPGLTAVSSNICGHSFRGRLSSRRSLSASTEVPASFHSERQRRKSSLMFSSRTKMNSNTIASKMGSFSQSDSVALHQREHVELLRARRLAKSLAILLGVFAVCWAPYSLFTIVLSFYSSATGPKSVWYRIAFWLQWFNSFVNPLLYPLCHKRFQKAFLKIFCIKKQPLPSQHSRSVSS

SMILES: C[C@@H](N)Cc1c[nH]cn1
- Ki: 348 nM and 232 nM
